{
  "source": "patent US20070123546A1",
  "about": "“2-amino-7,8-dihydro-6H-pyrido[4,3-d]pyrimidin-5-ones” (Chiron Corporation, priority 2005, published 2007)",
  "data": [
    {"biological_target": "His-tagged N-terminal ATP binding domain (amino acid residues 9-236) of HSP90α (Homo sapiens, UniProt P07900)", "assay": "HSP90 inhibitor binding potency: TRF competition binding assay", "conditions": "Table 3; competition with biotinylated radicicol", "in_short": "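Competition against biotinylated radicicol for binding to the His-tagged 9-236 ATP domain of HSP90α: 2 h, room temperature, HEPES/MgCl2/KCl/BSA buffer. Streptavidin capture, then europium-labeled anti-His antibody and enhancement solution; europium counts give IC50.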", "units": {"IC50": "µM"}, "values": [
      {"smiles": "COc1cccc(-c2cc(F)ccc2[C@H]2Cc3nc(N)nc(C)c3C(=O)N2Cc2ccccc2F)n1", "note": "[Compound 123, (R)-2-Amino-6-(2-fluoro-benzyl)-7-[4-fluoro-2-(6-methoxy-pyridin-2-yl)-phenyl]-4-methyl-7,8-dihydro-6H-pyrido[4,3-d]pyrimidin-5-one]", "IC50": "< 10"},
      {"smiles": "COc1nc(-c2cc(F)ccc2[C@H]2Cc3nc(N)nc(C)c3C(=O)N2Cc2ccccc2F)cnc1N", "note": "[Compound 124, (R)-2-Amino-7-[2-(5-amino-6-methoxy-pyrazin-2-yl)-4-fluoro-phenyl]-6-(2-fluoro-benzyl)-4-methyl-7,8-dihydro-6H-pyrido[4,3-d]pyrimidin-5-one]", "IC50": "< 10"},
      {"smiles": "COc1cccc(-c2cc(F)ccc2[C@H]2Cc3nc(N)nc(C)c3C(=O)N2Cc2ccccc2Cl)n1", "note": "[Compound 125, (R)-2-Amino-6-(2-chloro-benzyl)-7-[4-fluoro-2-(6-methoxy-pyridin-2-yl)-phenyl]-4-methyl-7,8-dihydro-6H-pyrido[4,3-d]pyrimidin-5-one]", "IC50": "< 10"},
      {"smiles": "COc1nc(-c2cc(F)ccc2[C@H]2Cc3nc(N)nc(C)c3C(=O)N2Cc2ccccc2Cl)cnc1N", "note": "[Compound 126, (R)-2-Amino-7-[2-(5-amino-6-methoxy-pyrazin-2-yl)-4-fluoro-phenyl]-6-(2-chloro-benzyl)-4-methyl-7,8-dihydro-6H-pyrido[4,3-d]pyrimidin-5-one]", "IC50": "< 10"},
      {"smiles": "COc1cncc(-c2cc(F)ccc2[C@H]2Cc3nc(N)nc(C)c3C(=O)N2Cc2cccc(C(F)(F)F)c2)n1", "note": "[Compound 127, (R)-2-Amino-7-[4-fluoro-2-(6-methoxy-pyrazin-2-yl)-phenyl]-4-methyl-6-(3-trifluoromethyl-benzyl)-7,8-dihydro-6H-pyrido[4,3-d]pyrimidin-5-one]", "IC50": "< 10"},
      {"smiles": "COc1cccc(-c2cc(F)ccc2[C@H]2Cc3nc(N)nc(C)c3C(=O)N2Cc2cccc(C(F)(F)F)c2)n1", "note": "[Compound 128, (R)-2-Amino-7-[4-fluoro-2-(6-methoxy-pyridin-2-yl)-pheny 1]-4-methyl-6-(3-trifluoromethyl-benzyl)-7,8-dihydro-6H-pyrido[4,3-d]pyrimidin-5-one]", "IC50": "< 10"},
      {"smiles": "COc1cncc(-c2cc(F)ccc2[C@H]2Cc3nc(N)nc(C)c3C(=O)N2Cc2ccccc2F)n1", "note": "[Compound 129, (R)-2-Amino-6-(2-fluoro-benzyl)-7-[4-fluoro-2-(6-methoxy-pyrazin-2-yl)-phenyl]-4-methyl-7,8-dihydro-6H-pyrido[4,3-d]pyrimidin-5-one]", "IC50": "< 10"},
      {"smiles": "COc1cncc(-c2cc(F)ccc2[C@H]2Cc3nc(N)nc(C)c3C(=O)N2Cc2ccccc2Cl)n1", "note": "[Compound 130, (R)-2-Amino-6-(2-chloro-benzyl)-7-[4-fluoro-2-(6-methoxy-pyrazin-2-yl)-phenyl]-4-methyl-7,8-dihydro-6H-pyrido[4,3-d]pyrimidin-5-one]", "IC50": "< 10"},
      {"smiles": "COc1cncc(-c2cc(F)ccc2[C@H]2Cc3nc(N)nc(C)c3C(=O)N2CC2CCOCC2)n1", "note": "[Compound 131, (R)-2-Amino-7-[4-fluoro-2-(6-methoxy-pyrazin-2-yl)-phenyl]-4-methyl-6-(tetrahydro-pyran-4-ylmethyl)-7,8-dihydro-6H-pyrido[4,3-d]pyrimidin-5-one]", "IC50": "< 10"},
      {"smiles": "COc1cccc(-c2cc(F)ccc2[C@H]2Cc3nc(N)nc(C)c3C(=O)N2CC2CCOCC2)n1", "note": "[Compound 132, (R)-2-Amino-7-[4-fluoro-2-(6-methoxy-pyridin-2-yl)-phenyl]-4-methyl-6-(tetrahydro-pyran-4-ylmethyl)-7,8-dihydro-6H-pyrido[4,3-d]pyrimidin-5-one]", "IC50": "< 10"},
      {"smiles": "COc1cncc(-c2cc(F)ccc2[C@H]2Cc3nc(N)nc(C)c3C(=O)N2CC(C)(C)N2CCOCC2)n1", "note": "[Compound 133, (R)-2-Amino-7-[4-fluoro-2-(6-methoxy-pyrazin-2-yl)-phenyl]-4-methyl-6-(2-methyl-2-morpholin-4-yl-propyl)-7,8-dihydro-6H-pyrido[4,3-d]pyrimidin-5-one]", "IC50": "< 10"},
      {"smiles": "COc1cccc(-c2cc(F)ccc2[C@H]2Cc3nc(N)nc(C)c3C(=O)N2Cc2ccccc2)n1", "note": "[Compound 134, (R)-2-Amino-6-benzyl-7-[4-fluoro-2-(6-methoxy-pyridin-2-yl)-phenyl]-4-methyl-7,8-dihydro-6H-pyrido[4,3-d]pyrimidin-5-one]", "IC50": "< 10"},
      {"smiles": "COc1ncccc1-c1cc(F)ccc1[C@H]1Cc2nc(N)nc(C)c2C(=O)N1Cc1ccccc1", "note": "[Compound 135, (R)-2-Amino-6-benzyl-7-[4-fluoro-2-(2-methoxy-pyridin-3-yl)-phenyl]-4-methyl-7,8-dihydro-6H-pyrido[4,3-d]pyrimidin-5-one]", "IC50": "< 10"},
      {"smiles": "COc1cncc(-c2cc(F)ccc2[C@H]2Cc3nc(N)nc(C)c3C(=O)N2Cc2ccccc2)n1", "note": "[Compound 136, (R)-2-Amino-6-benzyl-7-[4-fluoro-2-(6-methoxy-pyrazin-2-yl)-phenyl]-4-methyl-7,8-dihydro-6H-pyrido[4,3-d]pyrimidin-5-one]", "IC50": "< 10"},
      {"smiles": "Cc1nc(N)nc2c1C(=O)N(Cc1ccccc1)[C@@H](c1ccc(F)cc1-c1cccc(F)c1F)C2", "note": "[Compound 138, (R)-2-Amino-6-benzyl-4-methyl-7-(5,2′,3′-trifluoro-biphenyl-2-yl)-7,8-dihydro-6H-pyrido[4,3-d]pyrimidin-5-one]", "IC50": "< 10"},
      {"smiles": "COc1ccc(-c2cc(F)ccc2[C@H]2Cc3nc(N)nc(C)c3C(=O)N2Cc2ccccc2)cc1F", "note": "[Compound 139, (R)-2-Amino-6-benzyl-7-(5,3′-difluoro-4′-methoxy-biphenyl-2-yl)-4-methyl-7,8-dihydro-6H-pyrido[4,3-d]pyrimidin-5-one]", "IC50": "> 10"},
      {"smiles": "Cc1nc(N)nc2c1C(=O)N(Cc1ccccc1)[C@@H](c1ccc(F)cc1-c1cccnc1)C2", "note": "[Compound 140, (R)-2-Amino-6-benzyl-7-(4-fluoro-2-pyridin-3-yl-phenyl)-4-methyl-7,8-dihydro-6H-pyrido[4,3-d]pyrimidin-5-one]", "IC50": "< 10"},
      {"smiles": "COc1ncc(-c2cc(F)ccc2[C@H]2Cc3nc(N)nc(C)c3C(=O)N2Cc2ccccc2)c(OC)n1", "note": "[Compound 141, (R)-2-Amino-6-benzyl-7-[2-(2,4-dimethoxy-pyrimidin-5-yl)-4-fluoro-phenyl]-4-methyl-7,8-dihydro-6H-pyrido[4,3-d]pyrimidin-5-one]", "IC50": "> 10"},
      {"smiles": "Cc1ccc(-c2cc(F)ccc2[C@H]2Cc3nc(N)nc(C)c3C(=O)N2Cc2ccccc2)c(F)c1", "note": "[Compound 142, (R)-2-Amino-6-benzyl-7-(5,2′-difluoro-4′-methyl-biphenyl-2-yl)-4-methyl-7,8-dihydro-6H-pyrido[4,3-d]pyrimidin-5-one]", "IC50": "> 10"},
      {"smiles": "Cc1nc(N)nc2c1C(=O)N(Cc1ccccc1)[C@@H](c1ccc(F)cc1-c1cccnc1F)C2", "note": "[Compound 143, (R)-2-Amino-6-benzyl-7-[4-fluoro-2-(2-fluoro-pyridin-3-yl)-phenyl]-4-methyl-7,8-dihydro-6H-pyrido[4,3-d]pyrimidin-5-one]", "IC50": "< 10"},
      {"smiles": "COc1cccc(-c2cc(F)ccc2[C@H]2Cc3nc(N)nc(C)c3C(=O)N2Cc2ccccc2)c1F", "note": "[Compound 144, (R)-2-Amino-6-benzyl-7-(5,2′-difluoro-3′-methoxy-biphenyl-2-yl)-4-methyl-7,8-dihydro-6H-pyrido[4,3-d]pyriniidin-5-one]", "IC50": "> 10"},
      {"smiles": "COc1ncc(-c2cc(F)ccc2[C@H]2Cc3nc(N)nc(C)c3C(=O)N2)nc1OC", "note": "[Compound 145, 2-Amino-7-[2-(5,6-dimethoxy-pyrazin-2-yl)-4-fluoro-phenyl]-4-methyl-7,8-dihydro-6H-pyrido[4,3-d]pyrimidin-5-one]", "IC50": "< 10"},
      {"smiles": "COc1cncc(-c2cc(F)ccc2[C@H]2Cc3nc(N)nc(C)c3C(=O)N2CCC(C)C)n1", "note": "[Compound 146, (R)-2-Amino-7-[4-fluoro-2-(6-methoxy-pyrazin-2-yl)-phenyl]-4-methyl-6-(3-methyl-butyl)-7,8-dihydro-6H-pyrido[4,3-d]pyrimidin-5-one]", "IC50": "< 10"},
      {"smiles": "COc1ncc(-c2cc(F)ccc2[C@H]2Cc3nc(N)nc(C)c3C(=O)N2CCC(C)C)nc1OC", "note": "[Compound 147, (R)-2-Amino-7-[-(5,6-dimethoxy-pyrazin-2-yl)-4-fluoro-phenyl]-4-methyl-6-(3-methyl-butyl)-7,8-dihydro-6H-pyrido[4,3-d]pyrimidin-5-one]", "IC50": "< 10"},
      {"smiles": "Cc1nc(N)nc2c1C(=O)N(CCC(C)C)[C@@H](c1ccc(F)cc1Br)C2", "note": "[Compound 148, (R)-2-Amino-7-(2-bromo-4-fluoro-phenyl)-4-methyl-6-(3-methyl-butyl)-7,8-dihydro-6H-pyrido[4,3-d]pyrimidin-5-one]", "IC50": "> 10"},
      {"smiles": "Cc1nc(N)nc2c1C(=O)N(CC(C)C)[C@@H](c1ccc(F)cc1Br)C2", "note": "[Compound 149, (R)-2-Amino-7-(2-bromo-4-fluoro-phenyl)-6-isobutyl-4-methyl-7,8-dihydro-6H-pyrido[4,3-d]pyrimidin-5-one]", "IC50": "> 10"},
      {"smiles": "COc1cccc(-c2cc(F)ccc2[C@H]2Cc3nc(N)nc(C)c3C(=O)N2CCC(C)C)n1", "note": "[Compound 150, (R)-2-Amino-7-[4-fluoro-2-(6-methoxy-pyridin-2-yl)-phenyl]-4-methyl-6-(3-methyl-butyl)-7,8-dihydro-6H-pyrido[4,3-d]pyrimidin-5-one]", "IC50": "< 10"},
      {"smiles": "Cc1nc(N)nc2c1C(=O)N(CCC(C)C)[C@@H](c1ccc(F)cc1-c1cccnc1F)C2", "note": "[Compound 151, (R)-2-Amino-7-[4-fluoro-2-(2-fluoro-pyridin-3-yl)-phenyl]-4-methyl-6-(3-methyl-butyl)-7,8-dihydro-6H-pyrido[4,3-d]pyrimidin-5-one]", "IC50": "< 10"},
      {"smiles": "COc1ncccc1-c1cc(F)ccc1[C@H]1Cc2nc(N)nc(C)c2C(=O)N1CCC(C)C", "note": "[Compound 152, (R)-2-Amino-7-[4-fluoro-2-(2-methoxy-pyridin-3-yl)-phenyl]-4-methyl-6-(3-methyl-butyl)-7,8-dihydro-6H-pyrido[4,3-d]pyrimidin-5-one]", "IC50": "< 10"},
      {"smiles": "COc1ccncc1-c1cc(F)ccc1[C@H]1Cc2nc(N)nc(C)c2C(=O)N1CCC(C)C", "note": "[Compound 153, (R)-2-Amino-7-[4-fluoro-2-(4-methoxy-pyridin-3-yl)-phenyl]-4-methyl-6-(3-methyl-butyl)-7,8-dihydro-6H-pyrido[4,3-d]pyrimidin-5-one]", "IC50": "< 10"}
    ]}
  ]
}
